Assays:
Adenosine deaminase = target: T1, Adenosine deaminase (Homo sapiens, UniProt P00813)
T1 sequence (P00813 whole entry): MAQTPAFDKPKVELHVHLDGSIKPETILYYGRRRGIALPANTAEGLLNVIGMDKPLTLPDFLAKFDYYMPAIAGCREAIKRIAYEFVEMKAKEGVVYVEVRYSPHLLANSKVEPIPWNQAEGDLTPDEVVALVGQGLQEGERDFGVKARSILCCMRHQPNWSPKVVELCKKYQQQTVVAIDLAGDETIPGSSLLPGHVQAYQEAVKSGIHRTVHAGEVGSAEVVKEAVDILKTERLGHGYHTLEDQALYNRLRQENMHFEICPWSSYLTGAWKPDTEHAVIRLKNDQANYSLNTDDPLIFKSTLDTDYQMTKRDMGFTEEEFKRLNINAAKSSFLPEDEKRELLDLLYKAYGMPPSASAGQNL
Description: Inhibition constant against human adenosine deaminase was determined

[1] = Pharmacokinetic property (C(max)) was determined after ip administration of 32 mg/kg in mice; assay type: ADME, organism-based; design: dose 32 mg/kg, route intraperitoneal; conditions: mouse, in vivo
[2] = Pharmacokinetic property (AUC) was determined after ip administration of 32 mg/kg in mice; assay type: ADME, organism-based; design: dose 32 mg/kg, route intraperitoneal; conditions: mouse, in vivo
[3] = Pharmacokinetic property (AUC) was determined after po administration of 32 mg/kg in mice; assay type: ADME, organism-based; design: dose 32 mg/kg, route oral; conditions: mouse, in vivo
[4] = Pharmacokinetic property (C(max)) was determined after po administration of 32 mg/kg in mice; assay type: ADME, organism-based; design: dose 32 mg/kg, route oral; conditions: mouse, in vivo

Compound	Ki (Adenosine deaminase)	Cmax [1]	AUC [2]	AUC [3]	Cmax [4]
O=C(O)c1cn(C(CO)c2ccccc2)cn1 (stereo not given)	> 100 µM	–	–	–	–
NC(=O)c1cn(C(CO)c2ccccc2)cn1 (stereo not given)	54 µM	–	–	–	–
OC[C@H]1O[C@@H](n2cnc3c2NC=NC[C@H]3O)C[C@@H]1O [PENTOSTATIN]	–	12200 ng/mL	9500 ng·h/mL	–	–
NC(=O)c1cn(C(CO)CCc2ccccc2)cn1 (stereo not given) [FR-221647]	–	25200 ng/mL	29600 ng·h/mL	29900 ng·h/mL	15200 ng/mL
CCCCCC[C@@H]([C@@H](C)O)n1cnc2c(N)ncnc21 [EHNA]	0.0037 µM	5900 ng/mL	2200 ng·h/mL	1000 ng·h/mL	1100 ng/mL
COC(=O)c1cn(C(CO)c2ccccc2)cn1 (stereo not given)	> 100 µM	–	–	–	–
OCc1cn(C(CO)c2ccccc2)cn1 (stereo not given)	> 100 µM	–	–	–	–

Source: ChEMBL document CHEMBL1136651, “Structure-based de novo design of non-nucleoside adenosine deaminase inhibitors” (Bioorg Med Chem Lett, 2003)
